Reference: US4883814A, “1-aryloxy-3-(substituted alkylamino)-2-propanols and use as β-blocker” (Merck & Co., Inc., priority 1988, dated 1989)

Legend:
β2 = target: T1, β2 (Cavia porcellus, UniProt Q8K4Z4); experiment: inhibition of isoproterenol-induced relaxation in isolated guinea pig tracheal chains contracted with PGF2α; details: vs isoproterenol-induced relaxation, read-out: pA2 values β2 (trachea) (converted)
T1 construct: isolated guinea pig tracheal chains; from tissue; host or cells: isolated guinea pig tracheal chains
T1 sequence (Q8K4Z4 whole entry): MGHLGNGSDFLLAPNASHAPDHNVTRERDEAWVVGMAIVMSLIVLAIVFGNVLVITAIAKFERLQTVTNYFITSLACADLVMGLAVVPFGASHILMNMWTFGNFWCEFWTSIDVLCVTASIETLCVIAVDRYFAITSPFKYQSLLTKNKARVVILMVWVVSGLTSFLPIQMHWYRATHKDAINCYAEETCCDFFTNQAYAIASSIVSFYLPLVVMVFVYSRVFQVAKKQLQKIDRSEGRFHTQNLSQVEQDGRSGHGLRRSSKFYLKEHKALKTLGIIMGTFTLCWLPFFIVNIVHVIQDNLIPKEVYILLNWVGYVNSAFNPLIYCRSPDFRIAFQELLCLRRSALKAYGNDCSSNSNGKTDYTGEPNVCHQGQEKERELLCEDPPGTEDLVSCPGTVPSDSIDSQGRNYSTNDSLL
Method: (§1) The in vitro β-adrenergic blocking properties of the novel compounds of this invention were evaluated in accordance with standard procedures. The interaction with the β1 -receptor was determined via inhibition of the positive chronotropic actions of isoproterenol in isolated guinea pig atrial preparations. β2 potency was determined by using isolated guinea pig tracheal chains contracted with PGF2α and by measuring inhibition of isoproterenol-induced relaxation.

β1 -receptor [1] = target: T2, β1 -receptor (Cavia porcellus, UniProt H0W3H1); experiment: inhibition of the positive chronotropic actions of isoproterenol in isolated guinea pig atrial preparations; details: isolated guinea pig atria; vs isoproterenol positive chronotropic action; read-out: pA2 values β1 (atria) (converted)
T2 construct: isolated guinea pig atrial preparations; from tissue; host or cells: isolated guinea pig atria
T2 sequence (H0W3H1 1-470): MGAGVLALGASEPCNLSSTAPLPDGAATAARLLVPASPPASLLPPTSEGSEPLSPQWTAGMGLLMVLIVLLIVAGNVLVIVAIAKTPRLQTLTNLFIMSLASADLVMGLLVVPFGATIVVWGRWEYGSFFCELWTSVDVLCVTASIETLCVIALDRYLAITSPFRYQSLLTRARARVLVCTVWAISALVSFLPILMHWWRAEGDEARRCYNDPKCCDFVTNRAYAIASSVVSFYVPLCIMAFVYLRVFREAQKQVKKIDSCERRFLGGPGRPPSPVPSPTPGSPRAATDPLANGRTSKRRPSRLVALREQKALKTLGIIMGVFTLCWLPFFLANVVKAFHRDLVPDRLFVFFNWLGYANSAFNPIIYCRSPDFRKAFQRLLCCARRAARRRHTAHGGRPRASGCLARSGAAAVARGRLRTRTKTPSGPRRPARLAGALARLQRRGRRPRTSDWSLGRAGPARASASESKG
Method: as §1

β1 -receptor [2] = experiment: as above; details: β1 (atria) versus β2 (trachea), from pA2 values
Method: as §1

SMILES	Kb (β2) [nM]	Kb (β1 -receptor [1]) [nM]	Cardioselectivity ratio (β1 -receptor [2])
N#Cc1ccccc1OCC(O)CNCCN1CCOCC1 (stereo not shown)	138	23.4	5.9
N#Cc1ccccc1OCC(O)CNCCN1CCNCC1 (stereo not shown)	34700	34.7	1000
N#Cc1ccccc1OCC(O)CNCCc1ccncc1 (stereo not shown)	–	–	4.1
N#Cc1ccccc1OCC(O)CNCCc1ccccn1 (stereo not shown)	64.6	25.7	2.5
N#Cc1ccccc1OCC(O)CNCCc1cccnc1 (stereo not shown)	89.1	15.5	5.8
